≈ marks a conversion by molar mass, not a printed value. Positions of bridges follow the written chain, without caps; N, C: chain ends. Non-standard residues stand in square brackets, D forms with d. Residues, ends and D or L forms follow the SMILES beside them. *: point of attachment. Phe(3,5-F2) = N[C@@H](Cc1cc(F)cc(F)c1)C(=O)O; Pip(4S-Me) = C[C@H]1CCN[C@H](C(=O)O)C1; Heptenoyl(2E) = CCCC/C=C/C(=O)*; aThr = C[C@H](O)[C@H](N)C(=O)O
Key:
Pseudomonas aeruginosa [1] = assay: Growth inhibition of Pseudomonas aeruginosa PA14 after 24 hrs; type: functional, organism-based; conditions: PA14, 24 h
Pseudomonas aeruginosa [2] = assay: Growth inhibition of Pseudomonas aeruginosa PAO1 after 24 hrs; type: functional, organism-based; conditions: PAO1, 24 h
Staphylococcus aureus [3] = assay: Antibacterial activity against Staphylococcus aureus by CLSI protocol based dilution method; type: functional
Staphylococcus aureus [4] = assay: Antibiofilm activity against methicillin-resistant Staphylococcus aureus 2 assessed as induction of biofilm eradication incubated for 24 hrs followed by 3 times wash out with water and subsequent compound addition measured after 24 hrs; type: functional
Staphylococcus aureus [5] = assay: Antibiofilm activity against […] methicillin-resistant Staphylococcus aureus 2 assessed as induction of biofilm eradication incubated for 24 hrs followed by 3 times wash out with water and subsequent compound addition measured after 24 hrs; type: functional
Staphylococcus aureus [6] = assay: Antibiofilm activity against methicillin-resistant Staphylococcus aureus 1707 assessed as induction of change in gene expression 0.625 uM after 20 hrs by RNA sequencing data based analysis relative to control; type: functional
Staphylococcus aureus [7] = assay: Antibiofilm activity against methicillin-resistant Staphylococcus aureus assessed as increase in isdB expression at 0.625 uM after 4 hrs by RT-qPCR analysis relative to control; type: functional

`CCCCCC[C@H](CCCCC[C@@H](O)C(N)=O)OC(=O)[C@@H]1CC=CN1C(=O)c1ccccc1O` was tested, and the IC50 (Pseudomonas aeruginosa [1]) was 67 to 130 nM and the IC50 (Pseudomonas aeruginosa [2]) was 1000 nM.

`CCCC/C=C/C(=O)N[C@@H](Cc1cc(F)cc(F)c1)C(=O)N[C@@H]1C(=O)N2CCC[C@H]2C(=O)N2CC[C@H](C)C[C@H]2C(=O)N[C@@H](C)C(=O)N2CCC[C@H]2C(=O)O[C@H]1C` ({Heptenoyl(2E)}-[Phe(3,5-F2)][aThr]P[Pip(4S-Me)]AP; ester 2-C) showed an MIC (Staphylococcus aureus [3]) of 0.0306 µM (≈ 0.024 µg/mL).

`CN[C@H](CC(C)C)C(=O)N[C@H]1C(=O)N[C@@H](CC(N)=O)C(=O)N[C@H]2C(=O)N[C@H]3C(=O)N[C@H](C(=O)N[C@H](C(=O)O)c4cc(O)cc(O)c4-c4cc3ccc4O)[C@H](O)c3ccc(c(Cl)c3)Oc3cc2cc(c3O[C@@H]2O[C@H](CO)[C@@H](O)[C@H](O)[C@H]2O[C@H]2C[C@](C)(N)[C@H](O)[C@H](C)O2)Oc2ccc(cc2Cl)[C@H]1O` [VANCOMYCIN] gave an MBEC (Staphylococcus aureus [4]) greater than 2000 µM and an MBEC (Staphylococcus aureus [5]) of 4 µM.

With `Oc1c(Br)cc(I)c2nc3cc(Cl)c(Cl)cc3nc12` the “fold change (FC)” value (Staphylococcus aureus [6]) was “>=2” and the “fold change (FC)” value (Staphylococcus aureus [7]) was 22.3.

— ChEMBL document CHEMBL4321783, “Recent Progress in Natural-Product-Inspired Programs Aimed To Address Antibiotic Resistance and Tolerance” (J Med Chem, 2019)
